Assay results as given in US6781000B1, “Alpha-ketoamide inhibitors of 20S proteasome” (CV Theurapeutics, Inc., priority 1998, dated 2004).

These molecules were tested against T1, chymotrypsin-like activity of 20S proteasome (Bos taurus, UniProt Q2TBX6+Q32KL2) (assay: 20S proteasome chymotryptic activity inhibition assay (Suc-Leu-Leu-Val-Tyr-AMC cleavage)). Conditions: 2 μg 20S proteasome from bovine brain, 50 μM fluorogenic substrate, 15 minutes at 37° C., pH7.5.
T1 construct: was purified to homogeneity from bovine brain according to published methods; from tissue; host or cells: bovine brain
Assay type: biochemical
In short: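 Bovine brain 20S proteasome (2 μg) with inhibitor at 0.1-100 μg/ml in 50 mM HEPES, 0.1% SDS, pH7.5. Reaction started with 50 μM Suc-LLVY-AMC, run 15 min at 37° C, stopped with pH 4.0 acetate; liberated AMC read by fluorescence (EX 370 nm, EM 430 nm).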

SMILES | IC50 for the inhibition of the chymotrypsin-like activity of 20S proteasome [mg/L] | IC50 [µM]
CC(C)CC(NC(=O)C(Cc1ccc(O)cc1)NC(=O)C(=O)Cc1c[nH]c2ccccc12)C(=O)NC(CC(=O)O)C(=O)O (stereo not shown) [Compound 143] | >10 | –
CC(C)CC(NC(=O)CCNC(=O)C(=O)Cc1c[nH]c2ccccc12)C(=O)NC(CCC(=O)O)C(=O)O (stereo not shown) [Compound 150] | >10 | –
CCCCC(NC(=O)C(=O)Cc1c[nH]c2ccccc12)C(=O)NC(CC(C)C)C(=O)NC(CCC(=O)O)C(=O)O (stereo not shown) [Compound 151] | >10 | –
CC(C)CC(NC(=O)C(Cc1ccccc1)NC(=O)C(=O)Cc1c[nH]c2ccccc12)C(=O)NC(CCC(=O)O)C(=O)O (stereo not shown) [Compound 152] | >10 | –
CC(C)CC(NC(=O)C(NC(=O)C(=O)Cc1c[nH]c2ccccc12)C(C)O)C(=O)NC(CCC(=O)O)C(=O)O (stereo not shown) [Compound 153] | >10 | –
CC(C)CC(NC(=O)C(C)NC(=O)C(=O)Cc1c[nH]c2ccccc12)C(=O)NC(CCC(=O)O)C(=O)O (stereo not shown) [Compound 154] | >10 | –
CC(C)CC(NC(=O)C(CC(=O)O)NC(=O)C(=O)Cc1c[nH]c2ccccc12)C(=O)NC(CCC(=O)O)C(=O)O (stereo not shown) [Compound 155] | >10 | –
CC(C)CC(NC(=O)C(NC(=O)C(=O)Cc1c[nH]c2ccccc12)C(C)C)C(=O)NC(CCC(=O)O)C(=O)O (stereo not shown) [Compound 156] | >10 | –
CCCC(NC(=O)C(=O)Cc1c[nH]c2ccccc12)C(=O)NC(CC(C)C)C(=O)NC(CCC(=O)O)C(=O)O (stereo not shown) [Compound 157] | >10 | –
CC(C)CC(NC(=O)C(Cc1ccc(O)cc1)NC(=O)C(=O)Cc1c[nH]c2ccccc12)C(=O)NC(CCC(=O)O)C(=O)O (stereo not shown) [Compound 158] | – | > 16.4
CCC(C)C(NC(=O)C(=O)Cc1c[nH]c2ccccc12)C(=O)NC(CC(C)C)C(=O)NC(CCC(=O)O)C(=O)O (stereo not shown) [Compound 159] | >10 | –
CC(C)CC(NC(=O)C(CC1CCCCC1)NC(=O)C(=O)Cc1c[nH]c2ccccc12)C(=O)NC(CCC(=O)O)C(=O)O (stereo not shown) [Compound 160] | >10 | –
CC(C)CC(NC(=O)C(Cc1cccnc1)NC(=O)C(=O)Cc1c[nH]c2ccccc12)C(=O)NC(CCC(=O)O)C(=O)O (stereo not shown) [Compound 161] | >10 | –
CC(C)CC(NC(=O)C(Cc1ccc2ccccc2c1)NC(=O)C(=O)Cc1c[nH]c2ccccc12)C(=O)NC(CCC(=O)O)C(=O)O (stereo not shown) [Compound 162] | >10 | –
CC(C)CC(NC(=O)C(Cc1ccc(-c2ccccc2)cc1)NC(=O)C(=O)Cc1c[nH]c2ccccc12)C(=O)NC(CCC(=O)O)C(=O)O (stereo not shown) [Compound 163] | >10 | –
CC(C)CC(NC(=O)C(Cc1ccc2ccccc2c1)NC(=O)C(=O)Cc1c[nH]c2ccccc12)C(=O)NC(C(=O)O)C(C)C (stereo not shown) [Compound 164] | >10 | –
CC(C)CC(NC(=O)C(Cc1ccc(-c2ccccc2)cc1)NC(=O)C(=O)Cc1c[nH]c2ccccc12)C(=O)NC(C(=O)O)C(C)C (stereo not shown) [Compound 165] | >10 | –
CCC(C)C(NC(=O)C(=O)Cc1c[nH]c2ccccc12)C(=O)NC(CC(C)C)C(=O)NC(C(=O)O)C(C)C (stereo not shown) [Compound 167] | >10 | –
CC(C)CC(NC(=O)C(CC1CCCCC1)NC(=O)C(=O)Cc1c[nH]c2ccccc12)C(=O)NC(C(=O)O)C(C)C (stereo not shown) [Compound 168] | >10 | –
CC(C)CC(NC(=O)C(Cc1cccnc1)NC(=O)C(=O)Cc1c[nH]c2ccccc12)C(=O)NCC(=O)O (stereo not shown) [Compound 169] | >10 | –
CC(C)CC(NC(=O)C(Cc1ccc2ccccc2c1)NC(=O)C(=O)Cc1c[nH]c2ccccc12)C(=O)NCC(=O)O (stereo not shown) [Compound 170] | >10 | –
CC(C)CC(NC(=O)C(Cc1ccc(-c2ccccc2)cc1)NC(=O)C(=O)Cc1c[nH]c2ccccc12)C(=O)NCC(=O)O (stereo not shown) [Compound 171] | >10 | –
CC(C)CC(NC(=O)C(CC1CCCCC1)NC(=O)C(=O)Cc1c[nH]c2ccccc12)C(=O)NC(C(=O)O)C(C)C (stereo not shown) [Compound 172] | >10 | –
CC(C)CC(NC(=O)C(Cc1cccnc1)NC(=O)C(=O)Cc1c[nH]c2ccccc12)C(=O)NC(C(=O)O)C(C)C (stereo not shown) [Compound 173] | >10 | –
CCCCC(NC(=O)C(CC(C)C)NC(=O)C(Cc1ccc(-c2ccccc2)cc1)NC(=O)C(=O)Cc1c[nH]c2ccccc12)C(=O)O (stereo not shown) [Compound 174] | 5 | –

SMILES | IC50 for the inhibition of the chymotrypsin-like activity of 20S proteasome [mg/L] | IC50 [µM]
CC(C)CC(NC(=O)C(Cc1ccc(-c2ccccc2)cc1)NC(=O)C(=O)Cc1c[nH]c2ccccc12)C(=O)NC(Cc1ccccc1)C(=O)O (stereo not shown) [Compound 175] | >10 | –
CC(C)CC(NC(=O)C(Cc1ccc(-c2ccccc2)cc1)NC(=O)C(=O)Cc1c[nH]c2ccccc12)C(=O)NC(CC(=O)O)C(=O)O (stereo not shown) [Compound 176] | 1 | –
CCCCC(NC(=O)C(CC(C)C)NC(=O)C(Cc1ccc2ccccc2c1)NC(=O)C(=O)Cc1c[nH]c2ccccc12)C(=O)O (stereo not shown) [Compound 178] | >10 | –
CC(C)CC(NC(=O)C(Cc1ccc2ccccc2c1)NC(=O)C(=O)Cc1c[nH]c2ccccc12)C(=O)NC(Cc1ccccc1)C(=O)O (stereo not shown) [Compound 179] | >10 | –
CC(C)CC(NC(=O)C(Cc1ccc2ccccc2c1)NC(=O)C(=O)Cc1c[nH]c2ccccc12)C(=O)NC(CC(=O)O)C(=O)O (stereo not shown) [Compound 180] | 5 | –
CC(C)CC(NC(=O)C(=O)Cc1c[nH]c2ccccc12)C(=O)NC(Cc1ccccc1)C(=O)O (stereo not shown) [Compound 182] | >10 | –
CC(C)CC(NC(=O)CNC(=O)C(=O)Cc1c[nH]c2ccccc12)C(=O)NCC(=O)O (stereo not shown) [Compound 184] | >10 | –
CC(C)CC(NC(=O)C(Cc1ccc(-c2ccccc2)cc1)NC(=O)C(=O)Cc1c[nH]c2ccccc12)C(=O)NC(CC(N)=O)C(=O)O (stereo not shown) [Compound 185] | 5 | –
CC(C)CC(NC(=O)C(Cc1ccc(-c2ccccc2)cc1)NC(=O)C(=O)Cc1c[nH]c2ccccc12)C(=O)NC(CCC(N)=O)C(=O)O (stereo not shown) [Compound 186] | >10 | –
CC(C)CC(NC(=O)C(Cc1ccc(-c2ccccc2)cc1)NC(=O)C(=O)Cc1c[nH]c2ccccc12)C(=O)NC(Cc1ccc(-c2ccccc2)cc1)C(=O)O (stereo not shown) [Compound 187] | >10 | –
CC(C)CC(NC(=O)C(Cc1ccc(-c2ccccc2)cc1)NC(=O)C(=O)Cc1c[nH]c2ccccc12)C(=O)NCCC(=O)O (stereo not shown) [Compound 188] | 5 | –
CC(C)CC(NC(=O)C(Cc1ccc(-c2ccccc2)cc1)NC(=O)C(=O)Cc1c[nH]c2ccccc12)C(=O)NC(Cc1ccc(-c2ccccc2)cc1)C(=O)O (stereo not shown) [Compound 189] | >10 | –
CC(C)CC(NC(=O)C(Cc1ccc(-c2ccccc2)cc1)NC(=O)C(=O)Cc1c[nH]c2ccccc12)C(=O)NC(CCCNC(=N)N)C(=O)O (stereo not shown) [Compound 191] | – | 4.31
CC(C)CC(NC(=O)C(Cc1ccc(-c2ccccc2)cc1)NC(=O)C(=O)Cc1c[nH]c2ccccc12)C(=O)NC(Cc1cccnc1)C(=O)O (stereo not shown) [Compound 192] | 3 | –
CC(C)CC(NC(=O)C(Cc1ccc(-c2ccccc2)cc1)NC(=O)C(=O)Cc1c[nH]c2ccccc12)C(=O)NC(CCCCN)C(=O)O (stereo not shown) [Compound 193] | >10 | –
CC(C)CC(NC(=O)C(Cc1ccc(-c2ccccc2)cc1)NC(=O)C(=O)Cc1c[nH]c2ccccc12)C(=O)NC(C(=O)O)c1ccccc1 (stereo not shown) [Compound 194] | >10 | –
CC(C)CC(NC(=O)C(Cc1ccc(-c2ccccc2)cc1)NC(=O)C(=O)Cc1c[nH]c2ccccc12)C(=O)NC(CC(=O)O)C(=O)O (stereo not shown) [Compound 195] | >10 | –
CC(C)CC(NC(=O)C(Cc1ccc(-c2ccccc2)cc1)NC(=O)C(=O)Cc1c[nH]c2ccccc12)C(=O)NC(Cc1c[nH]cn1)C(=O)O (stereo not shown) [Compound 196] | >10 | –
CC(C)CC(NC(=O)C(Cc1ccc(-c2ccccc2)cc1)NC(=O)C(=O)Cc1c[nH]c2ccccc12)C(=O)NC(Cc1cscn1)C(=O)O (stereo not shown) [Compound 198] | >10 | –
CCCC(NC(=O)C(=O)Cc1c[nH]c2ccccc12)C(=O)NC(CC(C)C)C(=O)NC(C(=O)O)C(C)C (stereo not shown) [Compound 199] | >10 | –
CC(C)C[C@@H](NC(=O)[C@H](CC(=O)O)NC(=O)C(=O)Cc1c[nH]c2ccccc12)C(=O)N[C@H](C(=O)O)C(C)C [Compound 200] | – | > 18.8
CCCC(NC(=O)C(=O)Cc1c[nH]c2ccccc12)C(=O)NC(CC(C)C)C(=O)NC(C(=O)O)C(C)C (stereo not shown) [Compound 201] | >10 | –
CC(C)C(NC(=O)C(NC(=O)C(Cc1ccc(O)cc1)NC(=O)C(=O)Cc1c[nH]c2ccccc12)C(C)C)C(=O)O (stereo not shown) [Compound 202] | >10 | –
CC(C)C(NC(=O)C(NC(=O)C(NC(=O)C(=O)Cc1c[nH]c2ccccc12)C(C)C)C(C)C)C(=O)O (stereo not shown) [Compound 203] | >10 | –
